From ChEMBL document CHEMBL1949618, “Synthesis and properties of mRNA cap analogs containing imidodiphosphate moiety--fairly mimicking natural cap structure, yet resistant to enzymatic hydrolysis” (Bioorg Med Chem, 2012)
The source made the active and inactive calls. No cut-off for these calls is given here.

What was measured:
[1] = Chemical stability of the compound in aqueous buffer at pH 2 assessed as decomposition at 5 mM up to 2 hrs by RP-HPLC; assay type: physicochemical; settings: pH 2, 2 h, 5000 µM
[2] = Chemical stability of the compound in aqueous buffer at pH 2 assessed as decomposition at 5 mM after 24 hrs by RP-HPLC; assay type: physicochemical; settings: read-out: Drug degradation
[3] = Chemical stability of the compound in aqueous buffer at pH 6 assessed as decomposition at 5 mM up to 2 hrs by RP-HPLC; assay type: physicochemical; settings: pH 6, 2 h, 5000 µM
[4] = Chemical stability of the compound in aqueous buffer at pH 6 assessed as decomposition at 5 mM after 24 hrs by RP-HPLC; assay type: physicochemical; settings: read-out: Drug degradation
[5] = Chemical stability of the compound in aqueous buffer at pH 8 assessed as decomposition at 5 mM up to 2 hrs by RP-HPLC; assay type: physicochemical; settings: pH 8, 2 h, 5000 µM
[6] = Chemical stability of the compound in aqueous buffer at pH 8 assessed as decomposition at 5 mM after 24 hrs by RP-HPLC; assay type: physicochemical; settings: read-out: Drug degradation
[7] = Stability of the compound at -20 degreeC after 12 months; assay type: physicochemical; settings: 8766 h
[8] = molecular target: Eukaryotic translation initiation factor 4E (Homo sapiens) (UniProt P06730); test: Binding affinity to recombinant eIF4E by fluorescence quenching titration method
Sequence of Eukaryotic translation initiation factor 4E (Homo sapiens) (P06730 whole entry): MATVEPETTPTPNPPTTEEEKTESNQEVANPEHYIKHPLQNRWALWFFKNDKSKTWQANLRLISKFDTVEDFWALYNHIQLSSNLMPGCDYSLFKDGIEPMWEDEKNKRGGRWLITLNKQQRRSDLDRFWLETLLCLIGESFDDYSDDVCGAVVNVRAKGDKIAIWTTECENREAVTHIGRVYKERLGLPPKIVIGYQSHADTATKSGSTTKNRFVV

[9] = (§1) Stability of the compound assessed as human recombinant DcpS -mediated hydrolysis after 90 mins by HPLC; assay type: ADME; settings: 1.5 h
[10] = organism: Homo sapiens; test: Selectivity ratio of Ka for human recombinant DcpS to Ka for eIF4E
[11] = tested on: Nucleic Acid; test: Capping efficiency in mRNA after 60 mins by gel electrophoresis in the presence of SP6 polymerase; assay type: nucleic-acid assay
[12] = molecular target: Eukaryotic translation initiation factor 4E (Oryctolagus cuniculus) (UniProt P29338); test: Inhibition of eIF4E-mediated mRNA translation in rabbit reticulocyte lysate assessed as translation efficiency after 60 mins by luciferase reporter gene assay relative to m7GpppG-capped mRNA
Sequence of Eukaryotic translation initiation factor 4E (Oryctolagus cuniculus) (P29338 whole entry): as the sequence (P06730 whole entry) above, with T16P, T17A, E174D counted along it

[13] = molecular target: T1, m7GpppX diphosphatase (Homo sapiens) (UniProt Q96C86)
T1 sequence (whole entry): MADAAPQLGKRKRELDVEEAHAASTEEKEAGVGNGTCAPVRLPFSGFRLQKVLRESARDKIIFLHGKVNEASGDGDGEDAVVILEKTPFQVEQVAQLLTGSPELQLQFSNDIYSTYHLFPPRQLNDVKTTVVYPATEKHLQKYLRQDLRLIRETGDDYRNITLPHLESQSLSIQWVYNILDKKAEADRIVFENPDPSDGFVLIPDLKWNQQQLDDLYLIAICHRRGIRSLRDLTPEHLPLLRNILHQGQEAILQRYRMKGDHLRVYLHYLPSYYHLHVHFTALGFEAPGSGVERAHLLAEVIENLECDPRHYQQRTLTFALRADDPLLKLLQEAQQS
Description: Binding affinity to human recombinant DcpS by fluorescence quenching titration method

[14] = tested on: DcpS; test: as §1; assay type: ADME; settings: human, recombinant DcpS; read-out: Drug degradation
[15] = molecular target: T2, Eukaryotic translation initiation factor 4E (Oryctolagus cuniculus, UniProt P29338); test: Inhibition of eIF4E-mediated mRNA translation in rabbit reticulocyte lysate by luciferase reporter gene assay
T2 sequence (P29338 whole entry): as the sequence (P06730 whole entry) above, with T16P, T17A, E174D counted along it

[16] = molecular target: T2, Eukaryotic translation initiation factor 4E; test: Inhibition of eIF4E-mediated mRNA translation in rabbit reticulocyte lysate pre-incubated for 60 mins prior to mRNA addition by luciferase reporter gene assay

Drug degradation [1]	degraded at 24 h, 5000 µM [2] [%]	Drug degradation [3]	degraded at 24 h, 5000 µM [4] [%]	Drug degradation [5]	degraded at 24 h, 5000 µM [6] [%]	Stability [7]	Ka [8] [µM⁻¹]	Drug degradation [9]	Ratio [10]	Activity [11]	fold change (FC) [12]	Ka [13] [µM⁻¹]	metabolised at 1.5 h [14] [%]	IC50 [15] [µM]	IC50 [16] [µM]	SMILES
Not Active	< 10	Not Active	< 10	Not Active	< 10	Stable	10.4	Not Active	1.2	Active	1.11	12.8	–	–	–	CO[C@@H]1[C@H](O)[C@@H](COP(=O)([O-])OP(=O)([O-])NP(=O)([O-])OC[C@H]2O[C@@H](n3cnc4c(=O)[nH]c(N)nc43)[C@H](O)[C@@H]2O)O[C@H]1n1c[n+](C)c2c(=O)[nH]c(N)nc21.[Na+].[Na+]
Not Active	< 10	Not Active	< 10	Not Active	< 10	Stable	10.1	–	–	–	–	–	20	8.49	5.97	C[n+]1cn([C@@H]2O[C@H](COP(=O)([O-])OP(=O)([O-])NP(=O)([O-])OC[C@H]3O[C@@H](n4cnc5c(=O)[nH]c(N)nc54)[C@H](O)[C@@H]3O)[C@@H](O)[C@H]2O)c2nc(N)[nH]c(=O)c21.[Na+].[Na+]
